# Measured values: patent US7947285B2, “Methods for preventing post endoscopic retrograde cholangiopancreatography pancreatitis” (priority 2003, dated 2011)
# Where no end group is shown, it is not given here.
# Columns and labels:
# [1] = tested on: patients undergoing ERCP; assay: Incidence and severity of post-ERCP pancreatitis, randomized double-blind placebo controlled study; format: in vivo, human
# Description: This was a prospectively randomized, parallel group, double-blind, placebo controlled study conducted at one center. This was the ideal study design for evaluation of the prophylactic use of sPS in ERCP to decrease the incidence of post-ERCP pancreatitis. Parallel group design was necessary because patients usually require only one ERCP and, in any case, the first procedure might have an unknown effect on the outcome of a subsequent ERCP. Double-blinding the study was necessary because a major component of the evaluation related to symptoms such as pain and nauseas, which are, in part, subjective for the patient. The final classification of each patient required an overall medical judgment by the investigator. In order for this to be as objective as possible, the assessor (Principal Investigator) had to be blinded. Placebo control with normal saline was required because there is no approved or medically accepted drug to prevent post-ERCP pancreatitis. Further, sterile normal saline, USP for injection was completely safe with no pharmacological effect and produced a clear, colorless solution, which was indistinguishable from reconstituted sPS.
# Patients undergoing ERCP for medical reasons were the appropriate population to evaluate because only those requiring ERCP have the procedure and are subject to the known risk of post-ERCP pancreatitis. The patients had to meet all of the inclusion criteria to be enrolled in the study. […] Subjects were discontinued for the following reasons: (1) voluntary withdraw at subject's request; (2) noncompliance by subject to study procedures; (3) protocol violation such as discovery of pancreas divisum at the time of the ERCP, or (4) excessive toxicity from any study procedure or drug which in the judgment of the investigator makes continuation in the study contrary to the subject's medical interests. Subjects who discontinued from the study after receiving study drug were followed for safety and were replaced.
# This study compared synthetic porcine secretin (sPS) at a dose of 16 mcg (8 mL) (24 mcg for procedures longer than 30 minutes) given as a slow IV push over one minute and an equal volume of physiologic sterile saline USP for injection. Subjects were randomly assigned to one of two treatment groups (sPS vs. saline placebo) based on a randomization schedule generated at ChiRhoClin, Inc (Burtonsville, Md.). […] The final syringe with an identical appearing clear, colorless solution of identical volume containing either reconstituted sPS or saline was then delivered to the investigator performing the ERCP. The randomization code assigned patients in a 1:1 manner between the two treatments and was balanced in blocks of 250 patients.
# Incidence of post-ERCP pancreatitis (sPS vs. placebo) was evaluated as the primary efficacy variable in this study. Secondary efficacy variables included incidences of post-ERCP pancreatitis in the following sub-populations: (1) cannulation of CBD; (2) sphincterotomy of CBD; (3) cannulation of pancreatic duct; (4) sphincterotomy of pancreatic duct; (5) stent insertion and removal into CBD; (6) stent insertion and removal into pancreatic duct; (7) stone extraction (basket) from CBD; (8) stone extraction (balloon) from CBD; (9) manometry of CBD; (10) manometry of pancreatic duct; (11) pain scores pre and post ERCP (0-10 scale); (12) nausea scores pre and post ERCP (0-10 scale); (13) vomiting scores pre and post ERCP (0-10 scale); (14) return to baseline activity (pre-ERCP); and (15) return to work.
# In addition, the severity of pancreatitis was graded as defined by Cotton (Cotton, PB Gastrointest. Endosc. 40(4):514-18 (1994)), using the following criteria: (1) Minimal—managed on an outpatient basis; (2) Mild—Required hospitalization ≦3 days; (3) Moderate—required hospitalization for 4 to 10 days; and (4) Severe—required hospitalization for >10 days, ICU admission, surgical intervention or death. […]
# [2] = tested on: patients undergoing ERCP; assay: Vital signs (systolic and diastolic BP, pulse) pre and post ERCP; format: in vivo, human
# Method: This study evaluated the following safety variables: (1) Adverse events; (2) Vital signs; (3) Serum Amylase (when clinically indicated); and (4) Serum Lipase (when clinically indicated). No drug concentration measurements were assessed in this study.
# Primary and secondary efficacy variables were compared between the treatment groups using the Fisher Exact Test or Cochran-Mantel Haenszel Association Test. Adverse events and vital signs (heart rate, blood pressure) were compared between the treatment groups using the t-test. The clinical assumption on which the power calculation is based was on incidence of post-ERCP pancreatitis among all patients without pancreas divisum of 6%. In order to show a 50% reduction in the rate of post-ERCP pancreatitis with a significance of p=0.05, at a power of 80%, 749 evaluable patients per treatment group (sPS vs. placebo) were needed.
# Systolic and Diastolic blood pressure and pulse were measured for all patients' pre and post-ERCP procedure.
# [3] = of 44 cases, hospitalization 4 to 10 days
# [4] = of 44 cases, hospitalization >10 days, ICU, surgery or death
# [5] = of 44 cases, hospitalization ≦3 days
# [6] = of 44 cases, managed on an outpatient basis
# [7] = overall, N = 488, 16 mcg IV (24 mcg if >30 min), p 0.0161 vs placebo
# [8] = sub-population Cannulation of CBD, N = 361
# [9] = sub-population Cannulation of CBD, N = 361, p 0.0010
# [10] = sub-population Cannulation of Pancreatic Duct, N = 220
# [11] = sub-population Cannulation of Pancreatic Duct, N = 220, p 0.1237
# [12] = sub-population Manometry of CBD, N = 19
# [13] = sub-population Manometry of CBD, N = 19, p 0.0819
# [14] = sub-population Manometry of Pancreatic Duct, N = 11
# [15] = sub-population Manometry of Pancreatic Duct, N = 11, p 0.3665
# [16] = sub-population Sphincterotomy of CBD, N = 140
# [17] = sub-population Sphincterotomy of CBD, N = 140, p 0.0001
# [18] = sub-population Sphincterotomy of Pancreatic Duct, N = 26
# [19] = sub-population Sphincterotomy of Pancreatic Duct, N = 26, p 0.1666
# [20] = sub-population Stent Insertion into CBD, N = 108
# [21] = sub-population Stent Insertion into CBD, N = 108, p 0.0856
# [22] = sub-population Stent Insertion into Pancreatic Duct, N = 23
# [23] = sub-population Stent Insertion into Pancreatic Duct, N = 23, p 1.0000
# [24] = sub-population Stent Removal from CBD, N = 58
# [25] = sub-population Stent Removal from CBD, N = 58, p 0.6185
# [26] = sub-population Stent Removal from Pancreatic Duct, N = 17
# [27] = sub-population Stent Removal from Pancreatic Duct, N = 17, p 1.0000
# [28] = sub-population Stone Extraction (Balloon), N = 55
# [29] = sub-population Stone Extraction (Balloon), N = 55, p 1.0000
# [30] = sub-population Stone Extraction (Basket), N = 35
# [31] = sub-population Stone Extraction (Basket), N = 35, p 0.2298
substance,measurement,setting,value
"synthetic porcine secretin (HSDGTFTSELSRLRDSARLQRLLQGLV-NH2; ends and bridges not checked; UniProt P63298 33-59, looked up) [SPS, synthetic form of porcine secretin, a 27 amino acid gastrointestinal peptide hormone]",Post-ERCP Pancreatitis Severity Total (%),[1]; N = 488/44,100.0%
same,Post-ERCP Pancreatitis Severity Total: number of cases,[1]; N = 488/44,44
same,Post-ERCP Pancreatitis Severity Unknown (%),[1]; of 44 cases,15.91%
same,Post-ERCP Pancreatitis Severity Unknown: number of cases,[1]; of 44 cases,7
same,Post-ERCP Pancreatitis Severity Moderate (%),[1]; [3],20.45%
same,Post-ERCP Pancreatitis Severity Moderate: number of cases,[1]; [3],9
same,Post-ERCP Pancreatitis Severity Severe (%),[1]; [4],2.27%
same,Post-ERCP Pancreatitis Severity Severe: number of cases,[1]; [4],1
same,Post-ERCP Pancreatitis Severity Mild (%),[1]; [5],31.82%
same,Post-ERCP Pancreatitis Severity Mild: number of cases,[1]; [5],14
same,Post-ERCP Pancreatitis Severity Minimal (%),[1]; [6],29.55%
same,Post-ERCP Pancreatitis Severity Minimal: number of cases,[1]; [6],13
same,"Incidence of Post-ERCP Pancreatitis, No (%)","[1]; overall, N = 488, 16 mcg IV",90.98%
same,"Incidence of Post-ERCP Pancreatitis, No: number of patients","[1]; overall, N = 488, 16 mcg IV",444
same,"Incidence of Post-ERCP Pancreatitis, Yes (%)",[1]; [7],9.02%
same,"Incidence of Post-ERCP Pancreatitis, Yes: number of patients",[1]; [7],44
same,magnitude of the decrease in the frequency of post-ERCP pancreatitis,"[1]; relative to placebo, 979 patients, p=0.0137",36.2%
same,Post-ERCP Pancreatitis No (%),[1]; [8],92.52%
same,Post-ERCP Pancreatitis No: number of patients,[1]; [8],334
same,Post-ERCP Pancreatitis Yes (%),[1]; [9],7.48%
same,Post-ERCP Pancreatitis Yes: number of patients,[1]; [9],27
same,Post-ERCP Pancreatitis No (%),[1]; [10],86.36%
same,Post-ERCP Pancreatitis No: number of patients,[1]; [10],190
same,Post-ERCP Pancreatitis Yes (%),[1]; [11],13.64%
same,Post-ERCP Pancreatitis Yes: number of patients,[1]; [11],30
same,Post-ERCP Pancreatitis No (%),[1]; [12],78.95%
same,Post-ERCP Pancreatitis No: number of patients,[1]; [12],15
same,Post-ERCP Pancreatitis Yes (%),[1]; [13],21.05%
same,Post-ERCP Pancreatitis Yes: number of patients,[1]; [13],4
same,Post-ERCP Pancreatitis No (%),[1]; [14],54.58%
same,Post-ERCP Pancreatitis No: number of patients,[1]; [14],6
same,Post-ERCP Pancreatitis Yes (%),[1]; [15],45.45%
same,Post-ERCP Pancreatitis Yes: number of patients,[1]; [15],5
same,Post-ERCP Pancreatitis No (%),[1]; [16],95.00%
same,Post-ERCP Pancreatitis No: number of patients,[1]; [16],133
same,Post-ERCP Pancreatitis Yes (%),[1]; [17],5.00%
same,Post-ERCP Pancreatitis Yes: number of patients,[1]; [17],7
same,Post-ERCP Pancreatitis No (%),[1]; [18],57.85%
same,Post-ERCP Pancreatitis No: number of patients,[1]; [18],14
same,Post-ERCP Pancreatitis Yes (%),[1]; [19],46.15%
same,Post-ERCP Pancreatitis Yes: number of patients,[1]; [19],12
same,Post-ERCP Pancreatitis No (%),[1]; [20],97.22%
same,Post-ERCP Pancreatitis No: number of patients,[1]; [20],105
same,Post-ERCP Pancreatitis Yes (%),[1]; [21],2.78%
same,Post-ERCP Pancreatitis Yes: number of patients,[1]; [21],3
same,Post-ERCP Pancreatitis No (%),[1]; [22],78.26%
same,Post-ERCP Pancreatitis No: number of patients,[1]; [22],18
same,Post-ERCP Pancreatitis Yes (%),[1]; [23],21.74%
same,Post-ERCP Pancreatitis Yes: number of patients,[1]; [23],5
same,Post-ERCP Pancreatitis Yes (%),"[1]; sub-population Stent Insertion into Pancreatic Duct, N = 23, p 1.0000, listed as sPS",21.7%
same,Post-ERCP Pancreatitis No (%),[1]; [24],98.28%
same,Post-ERCP Pancreatitis No: number of patients,[1]; [24],57
same,Post-ERCP Pancreatitis Yes (%),[1]; [25],1.72%
same,Post-ERCP Pancreatitis Yes: number of patients,[1]; [25],1
same,Post-ERCP Pancreatitis No (%),[1]; [26],88.24%
same,Post-ERCP Pancreatitis No: number of patients,[1]; [26],15
same,Post-ERCP Pancreatitis Yes (%),[1]; [27],11.76%
same,Post-ERCP Pancreatitis Yes: number of patients,[1]; [27],2
same,Post-ERCP Pancreatitis No (%),[1]; [28],92.73%
same,Post-ERCP Pancreatitis No: number of patients,[1]; [28],51
same,Post-ERCP Pancreatitis Yes (%),[1]; [29],7.27%
same,Post-ERCP Pancreatitis Yes: number of patients,[1]; [29],4
same,Post-ERCP Pancreatitis No (%),[1]; [30],97.14%
same,Post-ERCP Pancreatitis No: number of patients,[1]; [30],34
same,Post-ERCP Pancreatitis Yes (%),[1]; [31],2.86%
same,Post-ERCP Pancreatitis Yes: number of patients,[1]; [31],1
same,"Diastolic BP post-ERCP, Mean (SD)",[2]; N = 381,68.7 (13.4) (N = 381) mm/Hg
same,"Pulse post-ERCP, Mean (SD)",[2]; N = 381,91.0 (20.4) (N = 381)
same,"Systolic BP post-ERCP, Mean (SD)",[2]; N = 381,131.0 (23.9) (N = 381) mm/Hg
same,"Diastolic BP pre-ERCP, Mean (SD)","[2]; baseline, N = 397",74.6 (12.8) (N = 397) mm/Hg
same,"Pulse pre-ERCP, Mean (SD)","[2]; baseline, N = 397",81.0 (15.7) (N = 397)
same,"Systolic BP pre-ERCP, Mean (SD)","[2]; baseline, N = 397",142.3 (24.9) (N = 397) mm/Hg
same,"Change in Systolic BP, Mean (SD)","[2]; pre to post ERCP, N = 378, p 0.0007",−11.4 (29.2) (N = 378) mm/Hg
same,"Change in Diastolic BP, Mean (SD)","[2]; pre to post ERCP, N = 378, p 0.1163",−6.0 (15.3) (N = 378) mm/Hg
same,"Change in Pulse, Mean (SD)","[2]; pre to post ERCP, N = 378, p 0.1324",9.7 (17.7) (N = 378)
